Source: ChEMBL document CHEMBL5257159, “Insights into targeting SARS-CoV-2: design, synthesis, in silico studies and antiviral evaluation of new dimethylxanthine derivatives” (RSC Med Chem, 2023)
pIC50: −log10 of the molar value. Calls of active or inactive are those of the source. The rule behind the calls is not given here.

How the values were obtained:
SARS-CoV-2 = test: Antiviral activity against SARS-CoV-2 NRC-03-nhCoV infected in african green monkey Vero E6 cells assessed as inhibition of virus-induced cytopathic effect measured after 72 hrs by crystal violet staining based assay; format: functional, organism-based; conditions: Severe acute respiratory syndrome coronavirus 2, NRC-03-nhCoV, Vero C1008, 72 h
[1] = Cytotoxicity against African green monkey Vero E6 cells measured after 72 hrs by MTT assay; format: toxicity, cell-based, Vero C1008; conditions: chlorocebus sabaeus
[2] = Selectivity index, ratio of CC50 for african green monkey Vero E6 cells to IC50 for antiviral activity against SARS-CoV-2 NRC-03-nhCoV infected in african green monkey Vero E6 cells; format: toxicity, Vero C1008; conditions: read-out: Ratio CC50/IC50
HOP-62 = test: Growth inhibition of human HOP-62 cells incubated for 48 hrs by SRB assay relative to control; format: functional
CCRF-CEM = test: Cytotoxicity against human CCRF-CEM cells assessed as inhibition of cell growth incubated for 48 hrs by SRB assay; format: functional, cell-based
HL-60(TB) = test: Cytotoxicity against human HL-60(TB) cells assessed as inhibition of cell growth incubated for 48 hrs by SRB assay; format: functional, cell-based
K562 = test: Cytotoxicity against human K562 cells assessed as inhibition of cell growth incubated for 48 hrs by SRB assay; format: functional, cell-based
MOLT-4 = test: Cytotoxicity against human MOLT-4 cells assessed as inhibition of cell growth incubated for 48 hrs by SRB assay; format: functional, cell-based
RPMI-8226 = test: Cytotoxicity against human […] cells assessed as inhibition of cell growth incubated for 48 hrs by SRB assay; format: functional, cell-based
SR = test: Cytotoxicity against human SR cells assessed as inhibition of cell growth incubated for 48 hrs by SRB assay; format: functional, cell-based
A549 = test: Cytotoxicity against human A549 cells assessed as inhibition of cell growth incubated for 48 hrs by SRB assay; format: functional, cell-based
EKVX = test: Cytotoxicity against human EKVX cells assessed as inhibition of cell growth incubated for 48 hrs by SRB assay; format: functional, cell-based
HOP-92 = test: Cytotoxicity against human HOP-92 cells assessed as inhibition of cell growth incubated for 48 hrs by SRB assay; format: functional, cell-based
NCI-H226 = test: Cytotoxicity against human NCI-H226 cells assessed as inhibition of cell growth incubated for 48 hrs by SRB assay; format: functional, cell-based
NCI-H23 = test: Cytotoxicity against human NCI-H23 cells assessed as inhibition of cell growth incubated for 48 hrs by SRB assay; format: functional, cell-based
NCI-H322M = test: Cytotoxicity against human NCI-H322M cells assessed as inhibition of cell growth incubated for 48 hrs by SRB assay; format: functional, cell-based
NCI-H460 = test: Cytotoxicity against human NCI-H460 cells assessed as inhibition of cell growth incubated for 48 hrs by SRB assay; format: functional, cell-based
NCI-H522 = test: Cytotoxicity against human NCI-H522 cells assessed as inhibition of cell growth incubated for 48 hrs by SRB assay; format: functional, cell-based
COLO 205 = test: Cytotoxicity against human COLO 205 cells assessed as inhibition of cell growth incubated for 48 hrs by SRB assay; format: functional, cell-based
HCC 2998 = test: Cytotoxicity against human HCC 2998 cells assessed as inhibition of cell growth incubated for 48 hrs by SRB assay; format: functional, cell-based
HCT-116 = test: Cytotoxicity against human HCT-116 cells assessed as inhibition of cell growth incubated for 48 hrs by SRB assay; format: functional, cell-based
HCT-15 = test: Cytotoxicity against human HCT-15 cells assessed as inhibition of cell growth incubated for 48 hrs by SRB assay; format: functional, cell-based
HT-29 = test: Cytotoxicity against human HT-29 cells assessed as inhibition of cell growth incubated for 48 hrs by SRB assay; format: functional, cell-based
KM12 = test: Cytotoxicity against human KM12 cells assessed as inhibition of cell growth incubated for 48 hrs by SRB assay; format: functional, cell-based
SW-620 = test: Cytotoxicity against human SW620 cells assessed as inhibition of cell growth incubated for 48 hrs by SRB assay; format: functional, cell-based
SF-268 = test: Cytotoxicity against human SF-268 cells assessed as inhibition of cell growth incubated for 48 hrs by SRB assay; format: functional, cell-based
SF-295 = test: Cytotoxicity against human SF-295 cells assessed as inhibition of cell growth incubated for 48 hrs by SRB assay; format: functional, cell-based
SF-539 = test: Cytotoxicity against human SF-539 cells assessed as inhibition of cell growth incubated for 48 hrs by SRB assay; format: functional, cell-based
SNB-19 = test: Cytotoxicity against human SNB-19 cells assessed as inhibition of cell growth incubated for 48 hrs by SRB assay; format: functional, cell-based
SNB-75 = test: Cytotoxicity against human SNB-75 cells assessed as inhibition of cell growth incubated for 48 hrs by SRB assay; format: functional, cell-based
U-251 = test: Cytotoxicity against human U-251 cells assessed as inhibition of cell growth incubated for 48 hrs by SRB assay; format: functional, cell-based
LOX IMVI = test: Cytotoxicity against human LOX IMVI cells assessed as inhibition of cell growth incubated for 48 hrs by SRB assay; format: functional, cell-based
Malme-3M = test: Cytotoxicity against human Malme-3M cells assessed as inhibition of cell growth incubated for 48 hrs by SRB assay; format: functional, cell-based
M14 = test: Cytotoxicity against human M14 cells assessed as inhibition of cell growth incubated for 48 hrs by SRB assay; format: functional, cell-based
MDA-MB-435 = test: Cytotoxicity against human MDA-MB-435 cells assessed as inhibition of cell growth incubated for 48 hrs by SRB assay; format: functional, cell-based
SK-MEL-2 = test: Cytotoxicity against human SK-MEL-2 cells assessed as inhibition of cell growth incubated for 48 hrs by SRB assay; format: functional, cell-based
SK-MEL-28 = test: Cytotoxicity against human SK-MEL-28 cells assessed as inhibition of cell growth incubated for 48 hrs by SRB assay; format: functional, cell-based
SK-MEL-5 = test: Cytotoxicity against human SK-MEL-5 cells assessed as inhibition of cell growth incubated for 48 hrs by SRB assay; format: functional, cell-based
UACC-257 = test: Cytotoxicity against human UACC-257 cells assessed as inhibition of cell growth incubated for 48 hrs by SRB assay; format: functional, cell-based
IGROV-1 = test: Cytotoxicity against human IGROV-1 cells assessed as inhibition of cell growth incubated for 48 hrs by SRB assay; format: functional, cell-based
OVCAR-3 = test: Cytotoxicity against human OVCAR-3 cells assessed as inhibition of cell growth incubated for 48 hrs by SRB assay; format: functional, cell-based
OVCAR-4 = test: Cytotoxicity against human OVCAR-4 cells assessed as inhibition of cell growth incubated for 48 hrs by SRB assay; format: functional, cell-based
OVCAR-5 = test: Cytotoxicity against human OVCAR-5 cells assessed as inhibition of cell growth incubated for 48 hrs by SRB assay; format: functional, cell-based
OVCAR-8 = test: Cytotoxicity against human OVCAR-8 cells assessed as inhibition of cell growth incubated for 48 hrs by SRB assay; format: functional, cell-based
NCI/ADR-RES = test: Cytotoxicity against human NCI/ADR-RES cells assessed as inhibition of cell growth incubated for 48 hrs by SRB assay; format: functional, cell-based
SK-OV-3 = test: Cytotoxicity against human SK-OV-3 cells assessed as inhibition of cell growth incubated for 48 hrs by SRB assay; format: functional, cell-based
786-0 = test: Cytotoxicity against human 786-0 cells assessed as inhibition of cell growth incubated for 48 hrs by SRB assay; format: functional, cell-based
A498 = test: Cytotoxicity against human A498 cells assessed as inhibition of cell growth incubated for 48 hrs by SRB assay; format: functional, cell-based
ACHN = test: Cytotoxicity against human ACHN cells assessed as inhibition of cell growth incubated for 48 hrs by SRB assay; format: functional, cell-based
CAKI-1 = test: Cytotoxicity against human CAKI-1 cells assessed as inhibition of cell growth incubated for 48 hrs by SRB assay; format: functional, cell-based
RXF 393 = test: Cytotoxicity against human RXF 393 cells assessed as inhibition of cell growth incubated for 48 hrs by SRB assay; format: functional, cell-based
SN12C = test: Cytotoxicity against human SN12C cells assessed as inhibition of cell growth incubated for 48 hrs by SRB assay; format: functional, cell-based
TK-10 = test: Cytotoxicity against human TK-10 cells assessed as inhibition of cell growth incubated for 48 hrs by SRB assay; format: functional, cell-based
PC-3 = test: Cytotoxicity against human PC-3 cells assessed as inhibition of cell growth incubated for 48 hrs by SRB assay; format: functional, cell-based
DU-145 = test: Cytotoxicity against human DU-145 cells assessed as inhibition of cell growth incubated for 48 hrs by SRB assay; format: functional, cell-based
MCF7 = test: Cytotoxicity against human MCF7 cells assessed as inhibition of cell growth incubated for 48 hrs by SRB assay; format: functional, cell-based
MDA-MB-231 = test: Cytotoxicity against human MDA-MB-231 cells assessed as inhibition of cell growth incubated for 48 hrs by SRB assay; format: functional, cell-based
Hs578Bst = test: Cytotoxicity against human Hs578Bst cells assessed as inhibition of cell growth incubated for 48 hrs by SRB assay; format: functional, cell-based
BT-549 = test: Cytotoxicity against human BT-549 cells assessed as inhibition of cell growth incubated for 48 hrs by SRB assay; format: functional, cell-based
T47D = test: Cytotoxicity against human T47D cells assessed as inhibition of cell growth incubated for 48 hrs by SRB assay; format: functional, cell-based
MDA-MB-468 = test: Cytotoxicity against human MDA-MB-468 cells assessed as inhibition of cell growth incubated for 48 hrs by SRB assay; format: functional, cell-based
UO-31 = test: Cytotoxicity against human UO-31 cells assessed as inhibition of cell growth incubated for 48 hrs by SRB assay; format: functional, cell-based

With `Cn1c(=O)c2c(ncn2CCC(=O)Nc2ccc(S(=O)(=O)Nc3ncccn3)cc2)n(C)c1=O` the pIC50 (SARS-CoV-2) was 4.42, the CC50 at 72 h [1] was 3940 µM and the selectivity ratio [2] was 103. The “growth inhibition (GI)” value (HOP-62) was 16.12%, the Activity (CCRF-CEM) was “inactive” and the Activity (HL-60(TB)) was “inactive”. The Activity (K562) was “inactive”, the Activity (MOLT-4) was “inactive” and the Activity (RPMI-8226) was “inactive”. For the same compound, the Activity (SR) was “inactive”, the Activity (A549) was “inactive” and the Activity (EKVX) was “inactive”. For the same compound, the Activity (HOP-92) was “inactive”, the Activity (NCI-H226) was “inactive” and the Activity (NCI-H23) was “inactive”. The Activity (NCI-H322M) was “inactive”, the Activity (NCI-H460) was “inactive” and the Activity (NCI-H522) was “inactive”. The Activity (COLO 205) was “inactive”, the Activity (HCC 2998) was “inactive” and the Activity (HCT-116) was “inactive”. The Activity (HCT-15) was “inactive”, the Activity (HT-29) was “inactive” and the Activity (KM12) was “inactive”. For the same compound, the Activity (SW-620) was “inactive”, the Activity (SF-268) was “inactive” and the Activity (SF-295) was “inactive”. For the same compound, the Activity (SF-539) was “inactive”, the Activity (SNB-19) was “inactive” and the Activity (SNB-75) was “inactive”. The Activity (U-251) was “inactive”, the Activity (LOX IMVI) was “inactive” and the Activity (Malme-3M) was “inactive”. The Activity (M14) was “inactive”, the Activity (MDA-MB-435) was “inactive” and the Activity (SK-MEL-2) was “inactive”. The Activity (SK-MEL-28) was “inactive”, the Activity (SK-MEL-5) was “inactive” and the Activity (UACC-257) was “inactive”. The Activity (IGROV-1) was “inactive”, the Activity (OVCAR-3) was “inactive” and the Activity (OVCAR-4) was “inactive”. The Activity (OVCAR-5) was “inactive”, the Activity (OVCAR-8) was “inactive” and the Activity (NCI/ADR-RES) was “inactive”. For the same compound, the Activity (SK-OV-3) was “inactive”, the Activity (786-0) was “inactive” and the Activity (A498) was “inactive”. For the same compound, the Activity (ACHN) was “inactive”, the Activity (CAKI-1) was “inactive” and the Activity (RXF 393) was “inactive”. The Activity (SN12C) was “inactive”, the Activity (TK-10) was “inactive” and the Activity (PC-3) was “inactive”. The Activity (DU-145) was “inactive”, the Activity (MCF7) was “inactive” and the Activity (MDA-MB-231) was “inactive”. The Activity (Hs578Bst) was “inactive”, the Activity (BT-549) was “inactive” and the Activity (T47D) was “inactive”. For the same compound, the Activity (MDA-MB-468) was “inactive” and the Activity (UO-31) was “inactive”.

`CCC(CC)COC(=O)[C@H](C)N[P@](=O)(OC[C@H]1O[C@@](C#N)(c2ccc3c(N)ncnn23)[C@H](O)[C@@H]1O)Oc1ccccc1` gave a pIC50 (SARS-CoV-2) of 5.00 and a CC50 at 72 h [1] of 608 µM.
